What all share (assay type): functional
Test [1] relates to Bemisia tabaci. Nature of the test: Insecticidal activity against field-collected population of Bemisia tabaci (sweet potato whitefly) biotype B Myakka (F2) eggs in cotton seedlings cut stem assessed as mortality measured after 14 days by stabilization treatment based systemic uptake bioassay.
The test system of test [2] is Bemisia tabaci. The experiment in a line: Resistance ratio of LC50 for field-collected population of Bemisia tabaci (sweet potato whitefly) biotype B GCC-AM ST (F4-5) adults to LC50 for laboratory strain of Bemisia tabaci (sweet potato whitefly) biotype B adults.
Test [3] relates to Bemisia tabaci. Nature of the test: Insecticidal activity against field-collected population of Bemisia tabaci (sweet potato whitefly) biotype B GCC-EV-Tom (F4) eggs in cotton seedlings cut stem assessed as mortality measured after 14 days by stabilization treatment based systemic uptake bioassay.
The test system of test [4] is Bemisia tabaci. The experiment in a line: Insecticidal activity against field-collected population of Bemisia tabaci (sweet potato whitefly) biotype B Cortez #1 (F4) adults infested in cotton seedlings cut stem assessed as mortality measured after 5 days by stabilization treatment based systemic uptake bioassay.
Test [5] deals with Bemisia tabaci. The experiment in a line: Insecticidal activity against laboratory strain of Bemisia tabaci (sweet potato whitefly) biotype B adults infested in cotton seedlings cut stem assessed as mortality measured after 5 days by stabilization treatment based systemic uptake bioassay.
The subject of test [6] is Bemisia tabaci. Nature of the test: Resistance ratio of LC50 for field-collected population of Bemisia tabaci (sweet potato whitefly) biotype B Cortez #1 (F4) adults to LC50 for laboratory strain of Bemisia tabaci (sweet potato whitefly) biotype B adults.
The subject of test [7] is Bemisia tabaci. Nature of the test: Insecticidal activity against field-collected population of Bemisia tabaci (sweet potato whitefly) biotype B Parrish (F3) eggs in cotton seedlings cut stem assessed as mortality measured after 14 days by stabilization treatment based systemic uptake bioassay.
The test system of test [8] is Bemisia tabaci. Nature of the test: Insecticidal activity against field-collected population of Bemisia tabaci (sweet potato whitefly) biotype B Devil's garden KAC (F3) eggs in cotton seedlings cut stem assessed as mortality measured after 14 days by stabilization treatment based systemic uptake bioassay.
Test [9] relates to Bemisia tabaci. Nature of the test: Insecticidal activity against field-collected population of Bemisia tabaci (sweet potato whitefly) biotype B Homestead #1 (F4) eggs in cotton seedlings cut stem assessed as mortality measured after 14 days by stabilization treatment based systemic uptake bioassay.
Test [10] deals with Bemisia tabaci. Nature of the test: Insecticidal activity against field-collected population of Bemisia tabaci (sweet potato whitefly) biotype B Homestead #1 (F2-F3) eggs in cotton seedlings cut stem assessed as mortality measured after 14 days by stabilization treatment based systemic uptake bioassay.
The subject of test [11] is Bemisia tabaci. Nature of the test: Insecticidal activity against field-collected population of Bemisia tabaci (sweet potato whitefly) biotype B GCC-AM (p) (F2) adults infested in cotton seedlings cut stem assessed as mortality measured after 5 days by stabilization treatment based systemic uptake bioassay.
The subject of test [12] is Bemisia tabaci. The experiment in a line: Resistance ratio of LC50 for field-collected population of Bemisia tabaci (sweet potato whitefly) biotype B GCC-AM (p) (F2) adults to LC50 for laboratory strain of Bemisia tabaci (sweet potato whitefly) biotype B adults.
For test [13], the system named is Bemisia tabaci. The experiment in a line: Insecticidal activity against field-collected population of Bemisia tabaci (sweet potato whitefly) biotype B GCC-AM ST (F4-5) adults infested in cotton seedlings cut stem assessed as mortality measured after 5 days by stabilization treatment based systemic uptake bioassay.

As for `CNC(=O)c1cc(C#N)cc(C)c1NC(=O)c1cc(Br)nn1-c1ncccc1Cl` [CYANTRANILIPROLE], the LC50 is recorded as 0.023 mgAi/L with Bemisia tabaci [1]; 0.034 mgAi/L in the test on Bemisia tabaci [3]; 0.058 mgAi/L with Bemisia tabaci [4]; 0.049 mgAi/L with Bemisia tabaci [5]; 0.015 mgAi/L in the test on Bemisia tabaci [7]; 0.033 mgAi/L with Bemisia tabaci [8]. Besides, the LC50 was 0.023 mgAi/L in the test with Bemisia tabaci [9], 0.013 mgAi/L with Bemisia tabaci [10], 0.059 mgAi/L in the test on Bemisia tabaci [11] and 0.037 mgAi/L in the test on Bemisia tabaci [13]. In addition, the RatioLC50 in the test with Bemisia tabaci [2] is 0.752; in the test with Bemisia tabaci [6] it was 1.174; with Bemisia tabaci [12], 1.207.

The record behind these values is ChEMBL document CHEMBL3046676, “Baseline susceptibility of Bemisia tabaci (Genn.) biotype B in southern Florida to cyantraniliprole” (2013).
